± gives the expanded uncertainty stated by the source.
Conditions: Liquid; for mass density: 303.15 K, 95.3 kPa, Pycnometric method

| SMILES | mass density [kg/m3] | further results |
| --- | --- | --- |
| Brc1ccccc1 [bromobenzene] | 1481.48 ± 1.7 | vapor or sublimation pressure (426.85 K): 95.3 ± 1.9 kPa |
| Clc1ccccc1 [chlorobenzene] | 1095.52 ± 1.1 | vapor or sublimation pressure (402.35 K): 95.3 ± 1.9 kPa |
| C[S+](C)[O-] [dimethyl sulfoxide] | 1092.4 ± 1.1 | vapor or sublimation pressure (460.95 K): 95.3 ± 1.9 kPa |
| CCc1ccccc1 [ethylbenzene] | 858.2 ± 0.86 | vapor or sublimation pressure (406.95 K): 95.3 ± 1.9 kPa |
| O=[N+]([O-])c1ccccc1 [nitrobenzene] | 1193.4 ± 1.3 | vapor or sublimation pressure (483.05 K): 95.3 ± 1.9 kPa |
| Cc1ccccc1 [toluene] | 857.66 ± 0.86 | vapor or sublimation pressure (381.65 K): 95.3 ± 1.9 kPa |
